Experimental data reported in ChEMBL document CHEMBL3217528, “Bicyclic imidazole-4-one derivatives: a new class of antagonists for the orphan G protein-coupled receptors GPR18 and GPR55” (Medchemcomm, 2014).
Calls of active or inactive are those of the source. The rule behind the calls is not given here.

Target: T1, G-protein coupled receptor 35 (Homo sapiens, UniProt Q9HC97)
Assay: Antagonist activity at human GPR35 assessed as reduction of zaprinast-induced beta-arrestin recruitment by beta-galactosidase enzyme fragment complementation method relative to untreated control
Parameters: concentration or dose not given beside the values
Settings: concentration not given here

T1 sequence (Q9HC97 whole entry, the tested form may be a part): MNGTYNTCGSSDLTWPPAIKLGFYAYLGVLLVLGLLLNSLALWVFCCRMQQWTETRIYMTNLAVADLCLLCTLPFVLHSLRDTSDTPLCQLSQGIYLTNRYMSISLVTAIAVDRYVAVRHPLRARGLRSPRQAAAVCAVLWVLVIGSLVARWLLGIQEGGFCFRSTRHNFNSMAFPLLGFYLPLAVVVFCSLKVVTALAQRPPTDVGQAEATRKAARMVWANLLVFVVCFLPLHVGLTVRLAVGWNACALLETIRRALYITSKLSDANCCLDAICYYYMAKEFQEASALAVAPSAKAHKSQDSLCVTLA

Compound | inhibition
O=C1/C(=C/c2ccccc2Cl)N=C2SCCCN12 | 49%
O=C1/C(=C/c2cccc(OCc3ccc(Cl)cc3)c2)N=C2SCCCCN12 | 1%
O=C1/C(=C/c2cccc(F)c2F)N=C2SCCCN12 | 17%

Target: T2, N-arachidonyl glycine receptor (Homo sapiens, UniProt Q14330)
T2 sequence (Q14330 whole entry): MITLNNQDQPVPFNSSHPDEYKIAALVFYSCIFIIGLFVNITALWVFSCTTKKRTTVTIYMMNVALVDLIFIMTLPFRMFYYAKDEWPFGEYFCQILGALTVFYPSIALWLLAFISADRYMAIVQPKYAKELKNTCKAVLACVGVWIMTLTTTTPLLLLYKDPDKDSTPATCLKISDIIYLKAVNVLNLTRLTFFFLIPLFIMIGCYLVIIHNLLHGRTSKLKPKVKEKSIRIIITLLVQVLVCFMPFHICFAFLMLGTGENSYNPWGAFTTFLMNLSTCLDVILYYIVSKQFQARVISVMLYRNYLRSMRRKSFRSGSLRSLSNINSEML
Assay: Agonist activity at human GPR18 expressed in CHO cells assessed as induction of beta-arrestin recruitment by beta-galactosidase enzyme fragment complementation method
Format: cell-based
Settings: not given

Compound | EC50
Cc1c(C(=O)NN2CCCCC2)nn(-c2ccc(Cl)cc2Cl)c1-c1ccc(Cl)cc1 [RIMONABANT] | 10.1 µM
CCCCCCC(C)(C)c1ccc([C@@H]2C[C@H](O)CC[C@H]2CCCO)c(O)c1 [CP-55940] | 5.99 µM

Target: T2, N-arachidonyl glycine receptor
Assay: Agonist activity at human GPR18 expressed in […] cells by MAP kinase assay
Format: cell-based
Settings: not given

Compound | EC50
CCCCCc1cc(O)c2c(c1)OC(C)(C)[C@@H]1CCC(C)=C[C@@H]21 [DRONABINOL] | 960 nM

Target: T3, N-arachidonyl glycine receptor (Homo sapiens) (UniProt Q14330)
T3 sequence (whole entry): T2 sequence (Q14330 whole entry)
Assay: Agonist activity at human GPR18 expressed in CHO cells assessed as induction of beta-arrestin recruitment by beta-galactosidase enzyme fragment complementation method relative to delta9-THC
Format: cell-based
Parameters: concentration or dose not given beside the values
Settings: not given

Compound | Activity
O=C1/C(=C/c2ccccc2Cl)N=C2SCCCN12 | 20%
O=C1/C(=C/c2cccc(OCc3ccc(Cl)cc3)c2)N=C2SCCCCN12 | 0%
O=C1/C(=C/c2cccc(F)c2F)N=C2SCCCN12 | 4%

Target: T4, Cannabinoid receptor 2 (Homo sapiens, UniProt P34972)
Assay: Displacement of [3H]CP55,940 from human recombinant CB2 receptor expressed in HEK293 cells
Format: cell-based
Settings: not given

T4 sequence (P34972 whole entry): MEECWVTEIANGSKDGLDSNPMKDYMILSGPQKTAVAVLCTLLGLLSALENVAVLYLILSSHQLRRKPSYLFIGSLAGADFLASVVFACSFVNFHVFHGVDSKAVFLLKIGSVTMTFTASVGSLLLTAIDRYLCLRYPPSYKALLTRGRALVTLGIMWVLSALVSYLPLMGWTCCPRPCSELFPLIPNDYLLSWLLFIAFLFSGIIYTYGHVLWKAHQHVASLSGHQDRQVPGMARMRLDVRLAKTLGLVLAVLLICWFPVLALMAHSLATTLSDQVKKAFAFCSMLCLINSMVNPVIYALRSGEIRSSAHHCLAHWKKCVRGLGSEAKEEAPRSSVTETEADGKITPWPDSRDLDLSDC

Compound | Ki
O=C1/C(=C/c2ccccc2Cl)N=C2SCCCN12 | > 10 µM
O=C1/C(=C/c2cccc(OCc3ccc(Cl)cc3)c2)N=C2SCCCCN12 | 4.15 µM
O=C1/C(=C/c2cccc(F)c2F)N=C2SCCCN12 | > 10 µM

Target: T5, G-protein coupled receptor 55 (Homo sapiens, UniProt Q9Y2T6)
Assay: Antagonist activity against human GPR55 expressed in CHO cells assessed as reduction in LPI-induced beta-arrestin recruitment by beta-galactosidase enzyme fragment complementation method
Format: cell-based
Settings: not given

T5 sequence (Q9Y2T6 whole entry, the tested form may be a part): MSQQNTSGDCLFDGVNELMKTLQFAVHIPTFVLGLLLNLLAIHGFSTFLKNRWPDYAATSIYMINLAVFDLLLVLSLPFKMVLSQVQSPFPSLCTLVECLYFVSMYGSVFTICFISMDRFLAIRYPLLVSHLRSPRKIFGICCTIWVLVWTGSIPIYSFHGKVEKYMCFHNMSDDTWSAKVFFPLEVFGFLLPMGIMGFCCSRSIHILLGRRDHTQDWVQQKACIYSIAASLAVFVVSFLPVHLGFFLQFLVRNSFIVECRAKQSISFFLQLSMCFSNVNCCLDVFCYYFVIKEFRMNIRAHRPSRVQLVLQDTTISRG

Compound | IC50
O=C1/C(=C/c2ccccc2Cl)N=C2SCCCN12 | 5.09 µM
O=C1/C(=C/c2cccc(F)c2F)N=C2SCCCN12 | 3.15 µM

Target: Cannabinoid receptor 1 (Rattus norvegicus) (UniProt P20272)
Assay: Displacement of [3H]CP55,940 from CB1 receptor in rat brain cortical membranes at 10 uM
Format: cell membranes
Settings: not given

Sequence of Cannabinoid receptor 1 (Rattus norvegicus) (P20272 whole entry): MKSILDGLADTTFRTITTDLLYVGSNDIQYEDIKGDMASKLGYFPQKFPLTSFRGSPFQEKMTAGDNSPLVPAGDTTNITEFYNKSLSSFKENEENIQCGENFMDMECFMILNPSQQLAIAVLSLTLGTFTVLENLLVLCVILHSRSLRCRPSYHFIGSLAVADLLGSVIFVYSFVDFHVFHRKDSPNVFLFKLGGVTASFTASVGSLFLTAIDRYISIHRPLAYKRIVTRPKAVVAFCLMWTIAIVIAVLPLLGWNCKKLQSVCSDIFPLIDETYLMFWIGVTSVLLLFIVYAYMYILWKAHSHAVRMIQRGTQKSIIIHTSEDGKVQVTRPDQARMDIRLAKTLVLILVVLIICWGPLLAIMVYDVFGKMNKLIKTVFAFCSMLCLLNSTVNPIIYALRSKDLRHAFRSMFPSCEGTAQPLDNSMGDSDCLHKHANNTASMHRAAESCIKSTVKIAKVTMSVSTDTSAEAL

Compound | inhibition
O=C1/C(=C/c2ccccc2Cl)N=C2SCCCN12 | 5%

Target: T3, N-arachidonyl glycine receptor (Homo sapiens)
Assay: Antagonist activity against human GPR18 expressed in CHO cells assessed as reduction in delta9-THC-induced beta-arrestin recruitment at 10 uM by beta-galactosidase enzyme fragment complementation method
Format: cell-based
Settings: not given

Compound | inhibition
O=C1/C(=C/c2ccccc2Cl)N=C2SCCCN12 | 6%
O=C1/C(=C/c2cccc(OCc3ccc(Cl)cc3)c2)N=C2SCCCCN12 | 31%
O=C1/C(=C/c2cccc(F)c2F)N=C2SCCCN12 | 3%

Target: T6, Cannabinoid receptor 1 (Homo sapiens, UniProt P21554)
Assay: Displacement of [3H]CP55,940 from human recombinant CB1 receptor expressed in CHO-K1 cells
Format: cell-based
Settings: not given

T6 sequence (P21554 whole entry): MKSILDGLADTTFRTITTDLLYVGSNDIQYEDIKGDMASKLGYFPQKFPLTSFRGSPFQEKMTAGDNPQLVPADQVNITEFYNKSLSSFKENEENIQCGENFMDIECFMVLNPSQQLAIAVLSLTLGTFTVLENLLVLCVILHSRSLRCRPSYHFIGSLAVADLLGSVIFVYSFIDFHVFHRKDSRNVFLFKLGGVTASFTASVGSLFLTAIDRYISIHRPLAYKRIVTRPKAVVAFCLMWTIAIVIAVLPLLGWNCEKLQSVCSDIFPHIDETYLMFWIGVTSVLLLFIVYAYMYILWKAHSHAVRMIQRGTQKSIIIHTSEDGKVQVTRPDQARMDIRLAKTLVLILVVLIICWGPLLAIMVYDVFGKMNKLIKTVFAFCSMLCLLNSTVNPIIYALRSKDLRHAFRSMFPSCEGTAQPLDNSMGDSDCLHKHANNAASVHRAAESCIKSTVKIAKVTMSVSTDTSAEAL

Compound | Ki
O=C1/C(=C/c2ccccc2Cl)N=C2SCCCN12 | > 10 µM
O=C1/C(=C/c2cccc(OCc3ccc(Cl)cc3)c2)N=C2SCCCCN12 | 0.25 µM
O=C1/C(=C/c2cccc(F)c2F)N=C2SCCCN12 | > 10 µM

Target: T6, Cannabinoid receptor 1
Assay: Intrinsic activity at human recombinant CB1 receptor expressed in HEK293 cell membranes assessed as stimulation of [35S]GTPgammaS binding at 10 uM by liquid scintillation counting method relative to CP55,940
Format: functional
Settings: not given

Compound | Intrinsic activity
O=C1/C(=C/c2cccc(OCc3ccc(Cl)cc3)c2)N=C2SCCCCN12 | -40%

Target: T4, Cannabinoid receptor 2
Assay: Intrinsic activity at human recombinant CB2 receptor expressed in HEK293 cell membranes assessed as stimulation of [35S]GTPgammaS binding at 10 uM by liquid scintillation counting method relative to CP55,940
Format: functional
Settings: not given

Compound | Intrinsic activity
O=C1/C(=C/c2cccc(OCc3ccc(Cl)cc3)c2)N=C2SCCCCN12 | -59%

Target: T4, Cannabinoid receptor 2
Assay: Displacement of [3H]CP55,940 from human recombinant CB2 receptor expressed in HEK293 cells at 10 uM
Format: cell-based
Settings: not given

Compound | inhibition
O=C1/C(=C/c2ccccc2Cl)N=C2SCCCN12 | 21%
O=C1/C(=C/c2cccc(F)c2F)N=C2SCCCN12 | 0%

Target: T6, Cannabinoid receptor 1
Assay: Agonist activity at human recombinant CB1 receptor expressed in CHO-K1 cell membranes assessed effect on forskolin-induced cAMP accumulation at 10 uM
Format: functional, cell-based
Settings: not given

Compound | Activity
CCCCCCC(C)(C)c1ccc([C@@H]2C[C@H](O)CC[C@H]2CCCO)c(O)c1 [CP-55940] | Active
O=C1/C(=C/c2cccc(OCc3ccc(Cl)cc3)c2)N=C2SCCCCN12 | inactive

Target: T5, G-protein coupled receptor 55
Assay: Agonist activity at human GPR55 expressed in CHO cells assessed as induction of LPI-induced beta-arrestin recruitment by beta-galactosidase enzyme fragment complementation method relative to LPI
Format: cell-based
Parameters: concentration or dose not given beside the values
Settings: not given

Compound | Activity
O=C1/C(=C/c2ccccc2Cl)N=C2SCCCN12 | 27%
O=C1/C(=C/c2cccc(OCc3ccc(Cl)cc3)c2)N=C2SCCCCN12 | 70%
O=C1/C(=C/c2cccc(F)c2F)N=C2SCCCN12 | 0%

Target: T4, Cannabinoid receptor 2
Assay: Agonist activity at human recombinant CB2 receptor expressed in CHO-K1 cell membranes assessed effect on forskolin-induced cAMP accumulation at 10 uM
Format: functional, cell-based
Settings: not given

Compound | Activity
CCCCCCC(C)(C)c1ccc([C@@H]2C[C@H](O)CC[C@H]2CCCO)c(O)c1 [CP-55940] | Active

Target: T1, G-protein coupled receptor 35
Assay: Antagonist activity at human GPR35 assessed as reduction of zaprinast-induced beta-arrestin recruitment by beta-galactosidase enzyme fragment complementation method
Settings: not given

Compound | IC50
O=C1/C(=C/c2ccccc2Cl)N=C2SCCCN12 | ≥ 10 µM
O=C1/C(=C/c2cccc(OCc3ccc(Cl)cc3)c2)N=C2SCCCCN12 | > 10 µM
O=C1/C(=C/c2cccc(F)c2F)N=C2SCCCN12 | > 10 µM

Target: T1, G-protein coupled receptor 35
Assay: Agonist activity at human GPR35 assessed as induction of beta-arrestin recruitment by beta-galactosidase enzyme fragment complementation method relative to zaprinast
Parameters: concentration or dose not given beside the values
Settings: not given

Compound | Activity
O=C1/C(=C/c2ccccc2Cl)N=C2SCCCN12 | -22%
O=C1/C(=C/c2cccc(OCc3ccc(Cl)cc3)c2)N=C2SCCCCN12 | 6%
O=C1/C(=C/c2cccc(F)c2F)N=C2SCCCN12 | -4%

Target: Cannabinoid receptor 1 (Rattus norvegicus, UniProt P20272)
Assay: Displacement of [3H]CP55,940 from CB1 receptor in rat brain cortical membranes
Format: cell membranes
Settings: not given

Sequence of Cannabinoid receptor 1 (Rattus norvegicus, UniProt P20272) (P20272 whole entry): as the sequence (P20272 whole entry) above

Compound | Ki
O=C1/C(=C/c2ccccc2Cl)N=C2SCCCN12 | > 10000 nM
O=C1/C(=C/c2cccc(OCc3ccc(Cl)cc3)c2)N=C2SCCCCN12 | 820 nM

Target: T5, G-protein coupled receptor 55
Assay: Allosteric antagonist activity against human GPR55 expressed in CHO cells assessed as induction of rightward shift of concentration response curve of LPI-induced beta-arrestin recruitment at 10 uM by beta-galactosidase enzyme fragment complementation method
Format: cell-based
Settings: not given

Compound | Allosteric antagonist activity
O=C1/C(=C/c2ccccc2Cl)N=C2SCCCN12 | Active
O=C1/C(=C/c2cccc(F)c2F)N=C2SCCCN12 | Active

Target: Cannabinoid receptor 1 (Rattus norvegicus) (UniProt P20272)
Assay: Intrinsic activity at CB1 receptor in rat brain cortical membranes assessed as stimulation of [35S]GTPgammaS binding at 10 uM by liquid scintillation counting method relative to CP55,940
Format: functional, cell membranes
Settings: not given

Compound | Intrinsic activity
O=C1/C(=C/c2cccc(OCc3ccc(Cl)cc3)c2)N=C2SCCCCN12 | -15%

Species: Rattus norvegicus
Assay: Displacement of [3H]diazepam from GABAA receptor in rat brain cortical membranes at 10 uM
Format: cell membranes
Settings: not given

Compound | inhibition
O=C1/C(=C/c2cccc(F)c2F)N=C2SCCCN12 | 24%

Target: T6, Cannabinoid receptor 1
Assay: Displacement of [3H]CP55,940 from human recombinant CB1 receptor expressed in CHO-K1 cells at 10 uM
Format: cell-based
Settings: not given

Compound | inhibition
O=C1/C(=C/c2ccccc2Cl)N=C2SCCCN12 | 0%
O=C1/C(=C/c2cccc(F)c2F)N=C2SCCCN12 | 7%

Target: not listed separately
Assay: Displacement of [3H]diazepam from GABAA receptor in rat brain cortical membranes
Format: cell membranes
Settings: not given

Compound | Ki
O=C1/C(=C/c2ccccc2Cl)N=C2SCCCN12 | 4.15 µM
O=C1/C(=C/c2cccc(OCc3ccc(Cl)cc3)c2)N=C2SCCCCN12 | > 10 µM
O=C1/C(=C/c2cccc(F)c2F)N=C2SCCCN12 | > 10 µM

Target: T5, G-protein coupled receptor 55
Assay: Inverse agonist activity against human GPR55 expressed in CHO cells assessed as reduction in LPI-induced beta-arrestin recruitment at 10 uM by beta-galactosidase enzyme fragment complementation method
Format: cell-based
Settings: not given

Compound | inhibition
O=C1/C(=C/c2cccc(F)c2F)N=C2SCCCN12 | Active

Target: T2, N-arachidonyl glycine receptor
Assay: Antagonist activity against human GPR18 expressed in CHO cells assessed as reduction in delta9-THC-induced beta-arrestin recruitment by beta-galactosidase enzyme fragment complementation method
Format: cell-based
Settings: not given

Compound | IC50
O=C1/C(=C/c2ccccc2Cl)N=C2SCCCN12 | > 10 µM
O=C1/C(=C/c2cccc(OCc3ccc(Cl)cc3)c2)N=C2SCCCCN12 | > 10 µM
O=C1/C(=C/c2cccc(F)c2F)N=C2SCCCN12 | > 10 µM

Target: T1, G-protein coupled receptor 35
Assay: Agonist activity at human GPR35 assessed as induction of beta-arrestin recruitment by beta-galactosidase enzyme fragment complementation method
Settings: not given

Compound | EC50
O=C1/C(=C/c2ccccc2Cl)N=C2SCCCN12 | > 10 µM
O=C1/C(=C/c2cccc(OCc3ccc(Cl)cc3)c2)N=C2SCCCCN12 | > 10 µM
O=C1/C(=C/c2cccc(F)c2F)N=C2SCCCN12 | > 10 µM

Target: T5, G-protein coupled receptor 55
Assay: Agonist activity at human GPR55 expressed in CHO cells assessed as induction of LPI-induced beta-arrestin recruitment by beta-galactosidase enzyme fragment complementation method
Format: cell-based
Settings: not given

Compound | EC50
CCCCCCC(C)(C)c1ccc([C@@H]2C[C@H](O)CC[C@H]2CCCO)c(O)c1 [CP-55940] | 1.61 µM
O=C1/C(=C/c2cccc(OCc3ccc(Cl)cc3)c2)N=C2SCCCCN12 | 10.7 µM
CCCCCc1cc(O)c2c(c1)OC(C)(C)[C@@H]1CCC(C)=C[C@@H]21 [DRONABINOL] | 14.2 µM
